Source: ChEMBL document CHEMBL3639046, “Substituted pyrimido[1,2-b]indazoles and their use as modulators of the Pi3K/Akt pathway” (2015)

Molecular target: RAC-alpha serine/threonine-protein kinase (Homo sapiens, UniProt P31749)
Experiment: TR-FRET assay: For the assay 50 nl of a 100fold concentrated solution of the test compound in DMSO was pipetted into a black low volume 384well microtiter plate (Greiner Bio- One, Frickenhausen, Germany), 2 ul of a solution of Akt1 in assay buffer [50 mM TRIS/HCI pH 7.5, 5 mM MgCI2, 1 mM dithiothreitol, 0.02% (v/v) Triton X-100 (Sigma)] were added and the mixture was incubated for 15 min at 22 C to allow pre-binding of the test compounds to the enzyme before the start of the kinase reaction. Then the kinase reaction was started by the addition of 3 ul of a solution of adenosine-tri-phosphate (ATP, 16.7 ul => final cone, in the 5 ul assay volume is 10 ul) and substrate (1 .67 ul => final cone, in the 5 ul assay volume is 1 ul) in assay buffer and the resulting mixture was incubated for a reaction time of 60 min at 22 C. The concentration of Akt1 in the assay was adjusted depending of the activity of the enzyme lot.

Sequence of RAC-alpha serine/threonine-protein kinase (P31749 whole entry): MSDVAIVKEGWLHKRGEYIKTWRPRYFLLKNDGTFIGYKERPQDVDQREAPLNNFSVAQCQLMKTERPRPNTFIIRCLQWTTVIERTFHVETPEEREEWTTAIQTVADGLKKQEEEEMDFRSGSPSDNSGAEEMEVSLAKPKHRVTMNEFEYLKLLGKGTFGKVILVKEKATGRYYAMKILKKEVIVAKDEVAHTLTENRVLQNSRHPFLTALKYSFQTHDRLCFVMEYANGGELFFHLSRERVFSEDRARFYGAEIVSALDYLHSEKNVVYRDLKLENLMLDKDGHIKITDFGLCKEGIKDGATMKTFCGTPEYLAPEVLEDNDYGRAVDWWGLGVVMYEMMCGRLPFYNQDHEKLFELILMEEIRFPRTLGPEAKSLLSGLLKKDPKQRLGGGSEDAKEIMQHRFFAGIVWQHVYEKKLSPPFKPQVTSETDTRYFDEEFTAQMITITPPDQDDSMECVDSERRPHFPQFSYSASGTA

Q: How did the IC50 turn out when `N#Cc1cccc(-c2cccc3c2nn2cc(-c4ccccc4)c(-c4ccc(C5(N)CCC5)cc4)nc32)c1` was run?
A: The IC50 was 10000 nM.

Q: For `N#Cc1cccc(-c2ccc3nn4cc(-c5ccccc5)c(-c5ccc(C6(N)CCC6)cc5)nc4c3c2)c1`, which IC50 is on record?
A: Its IC50 is 67 nM.

Q: How did the IC50 turn out when `N#Cc1ccc(-c2cccc3nn4cc(-c5ccccc5)c(-c5ccc(C6(N)CCC6)cc5)nc4c23)cc1` was run?
A: Its IC50 is 320 nM.

Q: For `NC1(c2ccc(-c3nc4c5cccc(O)c5nn4cc3-c3ccccc3)cc2)CCC1`, which IC50 is on record?
A: Its IC50 is 100 nM.

Q: Which IC50 does the source give for `NC1(c2ccc(-c3nc4c5cc(F)ccc5nn4cc3-c3ccccc3)cc2)CCC1` here?
A: The IC50 was 93 nM.

Q: `N#Cc1cccc2c1nn1cc(-c3ccccc3)c(-c3ccc(C4(N)CCC4)cc3)nc21` was tested. Which IC50 did it give?
A: The IC50 was 49 nM.

Q: How did the IC50 turn out when `NC1(c2ccc(-c3nc4c5cc(-c6ccc(F)cc6)ccc5nn4cc3-c3ccccc3)cc2)CCC1` was run?
A: The IC50 was 110 nM.
